According to patent US20080193563A1, “HARNESSING WNT SIGNALING TO RESTRICT HIV REPLICATION” (priority 2006, published 2008):

Experiments:
TCF-4 / Wnt signaling = assay: TOPflash luciferase reporter (Wnt signaling) in U87MG; assay type: cell-based, human; details: IFNγ treated, 24 hrs post-transfection
Description: FIG. 11 Impact of IFN-γ on Wnt signaling. U87MG cells were left untreated or treated with IFN-γ for 24 hrs and then transfected with either TOPflash (containing four native TCF/LEF binding sites) and Renilla constructs or GFP and Renilla constructs. Transfected cells were then cultured with or without their initial treatment (with or without IFN-γ). Luciferase relative light activity (relative light units) was measured 24 hrs later using a luminometer and normalized to Renilla activity. Data are based on at least three experiments and are presented as the increase (n-fold) in luciferase relative light units over Renilla ±standard deviation.
Wnt signaling in astrocytes and its inhibition by IFNγ was investigated: Although inhibiting TCF-4 with a dominant negative mutant stresses the importance of active TCF-4 in restricting HIV replication, it is not informative regarding the mechanism by which IFNγ overcomes astrocyte restriction to productive HIV replication. […] Luc activity was measured 24 hrs post-transfection TCF-4 reporter construct is an indicator of basal and inducible levels of Wnt signaling.
Active Wnt signaling in astrocytes and its inhibition by IFN-γ. […] Basal TCF-4 activity was detected in astrocytes, indicating active Wnt signaling in human astrocytes (FIG. 11). […]

[1] = test system: HIV reverse transcription in U87MG; assay: Early and late HIV reverse transcription in U87MG, real-time PCR; assay type: cell-based; details: IFNγ pre-treated 24 h
Description: FIG. 31 Comparative analysis of early and late HIV reverse transcription (RT) between infected untreated and infected IFN-γ treated astrocytes. U87MG cells were left untreated or treated with IFN-γ prior to HIV infection as described in Materials and Methods. Total DNA was isolated and amplified for tierh early HIV reverse transcription (reverse transcription initiation) using primer pair R and U5 at 24 h postinfection or late HIV transcription using primer pair R and 5NC at 96 h postinfection. (A) Comparison of amplified HIV DNA between untreated and IFN-γ-treated cultures. […] Rn stands for reading normalized, which equals the SyberGreen value divided by the ROX reference dye value.
Restriction to HIV replication is not at the level of HIV entry and reverse transcription. […] Early HIV reverse transcription was evaluated by real-time PCR at […] post-infection by amplifying with the R/U5 primer pairs, which detect negative-strand “strong-stop” DNA indicative of reverse transcription initiation. […]
Levels of HIV reverse transcription are similar between untreated and IFN-γ-treated astrocytes. […] Early HIV reverse transcription was evaluated by real-time PCR at 24 h postinfection by amplification with the R/U5 primer pair, which detects negative-strand “strong-stop” DNA indicative of reverse transcription initiation). […]

## IFNγ: cytokine secreted by lymphocytes, activated microglia and astrocytes; used to prime astrocytes
TCF-4 / Wnt signaling
  Reduction of basal Wnt signaling (TOPflash luciferase): approximately 50%
[1]
  Early HIV reverse transcription DNA (R/U5) vs untreated: similar
  Late HIV reverse transcription DNA (R/5NC) vs untreated: similar
